{"source": "paper PMC11073428", "about": "“The activity of pyrazolo[4,3-e][1,2,4]triazine and pyrazolo[4,3-e]tetrazolo[1,5-b][1,2,4]triazine sulphonamide derivatives in monolayer and spheroid breast cancer cell cultures” (Journal of Enzyme Inhibition and Medicinal Chemistry, 2024)", "tested_on": "Bax in MCF-7 cells", "experiment": "Anti-Bax antibody flow cytometry, MCF-7", "format": "cell-based, human", "settings": "24 h", "method": "To evaluate the molecular mechanism of induction of apoptosis of tested compounds, the level of p53, NF-κB, mTOR, Bax, and beclin-1 was measured using appropriate antibody according to the manufacturer’s instruction. In brief, tryspinised cells were centrifuged, then supernatant was discarded, and cells were suspended in 4% FA (formaldehyde). Prepared samples were incubated 15 min at RT. Following incubation, the 2.5 mL PBS was added to each sample and centrifuged. Then, supernatant was discarded, and cells were resuspended in 90% ice-cold methanol to perform permeabilisation and left for 1 h in ice. To remove methanol, cells were rinsed with excess PBS by centrifugation. Following centrifugation, the supernatant was discarded. Then, cells were resuspended in 100 µL of appropriate diluted (1:100 in PBS) antibody conjugate (p53 (7F5) Rabbit mAb – Alexa Fluor 488 Conjugate #5429 Cell Signalling Technology, Danvers, MA; NF-κB p65 (D14E12) XP Rabbit mAb – Alexa Fluor 647 Conjugate #8801 Cell Signalling Technology, Danvers, MA; mTOR (7C10) Rabbit mAB – Alexa Fluor 647 #5048 Cell Signalling Technology, Danvers, MA; FITC Anti-Bax antibody (T22-A) #ab139543, Abcam, Cambridge, UK) and incubated 1 h in the dark at RT. Afterwards, cells were washed by centrifugation in 2 mL of incubation buffer. Finally, supernatant was removed and 300 µL PBS was added to each sample and pipetted. The analysis was performed by flow cytometry (BD FACSCanto II, Becton Dickinson Biosciences Systems, San Jose, CA) using FACSDiva software ver. 6.1.3.", "data": [{"smiles": "Cc1nn(-c2ccc(S(=O)(=O)N[C@@H](CO)Cc3ccccc3)cc2)c2nn3nnnc3nc12", "note": "[Compound 3b, (R)-N-(1-hydroxy-3-phenylpropan-2-yl)-4-(7-methyl-5H-pyrazolo[4,3-e]tetrazolo[1,5-b][1,2,4]triazin-6-yl)benzenesulfonamide]", "values": [{"measurement": "cells with active Bax", "setting": "MCF-7, 0.25 µM", "value": "46.4 ± 6.6", "unit": "%"}, {"measurement": "cells with active Bax", "setting": "MCF-7, higher concentration (0.5 µM)", "value": "63.0 ± 1.6", "unit": "%"}]}]}
